Patent US4882314A, “A composition and method of treating selected malignant conditions” (priority 1987, dated 1989)

How the values were obtained:
[1] = tested on: colon carcinoma, tongue cancer, peritonitis carcinomatosa, liver cancer and stomach cancer; assay: clinical experiments, summary statement; assay type: in vivo, human; conditions: intravenous, about 20 to about 200 mg/day/man
[2] = stability and solubility, general statement; assay type: physicochemical
[3] = acute toxicity, oral administration or subcutaneous injection in mice; assay type: in vivo; conditions: mouse, in vivo; oral administration in mice
Protocol: (§1) The LD50 (mg/kg) value of the compound which is the active ingredient of the present invention, for example, in case of oral administration in mice is about 3000 mg/kg.

mice = assay: as above; assay type: in vivo; conditions: subcutaneous injection or oral administration in mice
Protocol: as §1

W2K.11 cells = assay: SV40 test: inhibition of proliferation of SV40-transformed malignant cells; assay type: cell-based, C3H mice; conditions: Mus musculus, read-out: proliferation inhibition ratio
Protocol: The SV40 (Simian Virus 40) method was adopted for determination of the carinostatic activity. According to this method, normal kidney cells of mice are transformed to malignant cells by the oncogenic virus SV40, the malignant cells are cultured, the test compound is added to the culture medium, the ratio of inhibition of proliferation of the cells is calculated and the carcinostatic activity is determined based on the calculated value. This method has recently been widely used because accurate results can be obtained [see proceedings of the Society for Experimental Biology and Medicine, 114, pages 721-727 (1963)].
The W2K.11 cells obtained by a malignant transformation of normal kidney cells of C3H mice by the oncogenic virus SV40 were used as cells for the test, and they were cultured according to the following method.
(1) Preparation of Culture Medium:
9.4 g of Eagle MEM Medium (manufactured by Nissui Seiyaku K.K.) was dissolved in 900 ml of distilled water and the solution was sterilized at 120° C., under pressure for 15 minutes. After cooling the sterilized solution, 100 ml of calf serum and 3 to 5 ml of a 10% aqueous solution of sodium hydrogencarbonate sterilized separately at 115° C. under pressure for 15 minutes were added to the solution to adjust the pH to 7.1 to 7.2. Just before the resulting culture medium was used, 10 ml of a L-glutamine solution (2.92 g/100 ml) filtered through A millipore filter was added thereto.
(2) Preparation of Test Cells:
The frozen test cells preserved in a deep freezer (-80° C.) with dimethyl sulfoxide added to the above culture medium to a final concentration of 10% were […] at room temperature and subjected to centrifugal separation under 670×g for 5 minutes. The supernatant was discarded and the precipitated cells were suspended in 50 ml of the culture medium. Then, the culture medium was transferred to a Roux flask and culturing was conducted at 37° C. The cells began to grow while adhering to the bottom of the flask, and sufficient growth was obtained in 3 to 4 days. […]

stomach cancer = assay: Experiment 6: clinical treatment of stomach cancer; assay type: in vivo, human; conditions: 200 mg/day/man intravenous infusion
Protocol: Patient: Stomach cancer of the terminal stage, the stomach extracted but many metastasized lesion in abdominal cavity, peritonitis cartinimatosa observed. […] The preparation for infusion was prepared according to Example 1. […] However, the patient died about 3 months after the start of administration.

[4] = tested on: peritonitis cartinimatosa; assay: Experiment 4: clinical treatment of peritonitis carcinomatosa; assay type: in vivo, human; conditions: 200 mg/day/man intravenous infusion
Protocol: Administration of 4,6-O-benzylidene-D-glucopyranose at a dosage of 200 mg/day/man by intravenous infusion was started for the treatment of the patient.

colon carcinoma = assay: Experiment 2: clinical treatment of colon carcinoma with metastatic cancer in the liver; assay type: in vivo, human
Protocol: Person, colon carcinoma with metastatic cancer of 13 cm×10 cm×8 cm in the liver, abdominal dropsy observed.
The patient was subjected to abdominal surgery on June 4, 1979 but extraction of the cancer was impossible and the incised abdoment was immediately sutured.
Administration of 4,6-O-benzylidene-D-glucopyranose at a dosage of 20 mg/day/man (in the form of a physiological saline solution having an active ingredient concentration of 4 mg/ml) by intraperitoneal injection was stated on Aug. 25, 1979. The preparation for injection was prepared according to Example 1. In about one month, the abdominal dropsy disappeared, appetite improved and the overall body condition improved.
A C.T. scan of the liver of the patient before the start of the intraperitoneal injection, that was taken on Aug. 25, 1979, is shown in FIG. 1-A (the metastic lesion (A) appears on the left-side of the tomogram), and a C.T. scan of the same region taken on Dec.

tongue cancer = assay: Experiment 3: clinical treatment of tongue cancer; assay type: in vivo, human
primary liver tumor = assay: Experiment 5: clinical treatment of primary liver tumor; assay type: in vivo, human; conditions: 200 mg/day/man intravenous infusion
Protocol: 4,6-O-benzylidene-D-glucopyranose was continuously administered at a dosage of 200 mg/day/man by intravenous infusion.

[5] = toxicity / side effects on continuous administration; assay type: in vivo
[6] = 20 mg/day/man intraperitoneal injection, about 3 months
[7] = 20 mg/day/man intraperitoneal injection, about one month
[8] = 200 mg/day/man intravenous infusion, after 10 days

Which results are given for OC1O[C@@H]2COC(c3ccccc3)O[C@H]2[C@H](O)[C@H]1O (stereo partly drawn) [4,6-O-benzylidene-D-glucopyranose]?
clinical effect [1]: prominent effect; stability [2]: very stable; water solubility [2]: water-soluble; LD50 [3]: ~3000 mg/kg; acute toxicity compared with other carcinostatic agents (mice): much lower than that of other carinostatic agents; inhibition at 125 µg/mL (W2K.11 cells; 72 h, 125 mcg/ml): 23%; inhibition at 250 µg/mL (W2K.11 cells; 72 h, 250 mcg/ml): 37%; inhibition at 500 µg/mL (W2K.11 cells; 500 mcg/ml, 72 hours of treatment): 72%; abdominal dropsy (stomach cancer; one month): disappeared; subjective symptoms (stomach cancer; one month): remarkable improvement; time to death after start of administration (stomach cancer; terminal stage): about 3 months; patient outcome [4]: died of paritonitis periforative about one month after the start of treatment; abdominal dropsy ([4]; one week): disappeared; cancer metastasized to the skin ([4]; one week): contraction of the cancer metastasized to the skin; condition of the disease ([4]; one week): subjective and objective improvements; CEA unit value (the hepatic function test) (colon carcinoma; [6]): remarkably reduced; metastatic lesion in the liver (colon carcinoma; [6]): almost disappeared; metastatic lesion in the liver (colon carcinoma; 20 mg/day/man intraperitoneal injection, about 4 months, C.T. scan FIG. 1-A vs FIG. 1-B): completely disappeared; abdominal dropsy (colon carcinoma; [7]): disappeared; appetite (colon carcinoma; [7]): improved; metastatic lesion in the liver (C.T. scan) (colon carcinoma; [7]): contraction of the metastatic lesion in the liver had started; overall body condition (colon carcinoma; [7]): improved; patient outcome (colon carcinoma; after treatment, 20 mg/day/man intraperitoneal injection): has lead a normal life since then; histopathology of the granular substance released from the submaxillar tumor (tongue cancer; 200 mg/day/man intravenous infusion): composed of histopathologically keratinized squamous cells; malignant lesion of the tongue (photographs FIGS. 2-A, 3-A vs 2-B, 3-B) (tongue cancer; 200 mg/day/man intravenous infusion, Oct. 15 to Nov. 19, 1979): disappeared; submaxillar tumor (tongue cancer; [8]): softened and began to release a granular substance; tumor on the tongue (tongue cancer; [8]): began to disappear; patient outcome (tongue cancer; 200 mg/day/man intravenous infusion, terminal stage): died after about one month of treatment; abdominal dropsy (primary liver tumor; about one month): reduction in the abdominal dropsy; liver tumor (primary liver tumor; about one month): prominent contraction of the liver tumor; patient outcome (primary liver tumor; terminal stage): died after about four months of treatment; toxicity ([5]; continuous administration at the above-mentioned dosage): no toxicity is observed; toxicity, general statement ([5]; in vivo): lowly toxic; excretion from a living body ([5]; when administered): readily excreted from a living body; side effects ([5]; when administered): no side effects are caused

With O=c1[nH]c(=O)n(C2CCCO2)cc1F (stereo not shown) [FT 207, reference compound] as the compound, how does the “effect of prior treatment” value (colon carcinoma; FT 207 treatment with cobalt 60 radiotherapy, initiated before the operation) read?
The value was “no effect had been observed”.

Which “effect of prior treatment” value (tongue cancer; prior conventional chemotherapy, BCG, radiotherapy and laetrile) does the source give for N#C[C@H](O[C@@H]1O[C@H](CO[C@@H]2O[C@H](CO)[C@@H](O)[C@H](O)[C@H]2O)[C@@H](O)[C@H](O)[C@H]1O)c1ccccc1 [laetrile, amygdalin, reference compound] here?
Its value is “no effect could be observed”.
